The source of these data is patent US4839355A, “Tricyclic-pyridinylquinoline compounds, their preparation and use” (Sterling Drug Inc., priority 1988, dated 1989).

Data set [1] relates to Micrococcus luteus. Kind of data set: In vitro antimicrobial activity, microplate dilution MIC, Micrococcus luteus. Format: cell-based. The settings on record: 10^5 microorganism/ml, read-out: MIC (minimal inhibitory concentration), ML. The protocol: (§1) The in vitro antimicrobial activity of the compounds of the invention was determined by a microplate dilution procedure. Bacterial cultures were grown in Meuller Hintom II (cation supplemented) broth (S. aureus, S. faecalis, M. luteus, E. coli and P. aeruginosa), Brain Heart Infusion (BHI) broth supplemented with 10% heat inactivated horse serum (S. penumoniae) or BHI broth supplemented with 5 mcg/ml Hemin and 0.5 mcg/ml vitamin K (B. fragilis) at 37° C. for 18-24 hrs. The cultures were grown under aerobic conditions with the exception of B. fragilis which was grown 48 hrs. under anaerobic conditions (atmosphere 5% CO2, 10% H2 and 85% N2). Resulting suspensions were diluted 1/10 in the appropriate broth or used undiluted for the inoculum. Aqueous solutions of the compounds of the invention were solubilized in dimethylsulfoxide (DMSO) at the desired concentration and 200 mcl were dispensed into the first row of wells of a sterile microplate. The compounds were then serially diluted two-fold in DMSO to give a working stock concentration range plate. The last row of wells was left compound-free receiving only DMSO to serve as a growth control. Five mcl from each well of the working stock plate was transferred to corresponding wells of a separate plate containing 95 mcl/well of the appropriate broth. All dilutions were made with either an automated dilutor or manually. The wells of microplate containing the desired compound concentrations and compound-free growth controls in broth were then inoculated using the MIC 2000 inoculator which delivers 1.5 mcl/well to give a final inoculum level of 10^4 microorganism/well or 10^5 microorganism/ml. Plates were incubated as described above and read for visible growth. The minimal inhibitory concentration (MIC: expressed in mcg/ml) of each compound tested against each test microorganism was determined as the lowest concentration of compound which prevents visible microbial growth.

Data set [2] concerns Escherichia coli. The data set is described as follows: In vitro antimicrobial activity, microplate dilution MIC, Escherichia coli. Particulars: 10^5 microorganism/ml, read-out: MIC (minimal inhibitory concentration), EC. Format: cell-based. The protocol: as §1
Data set [3] has as its system Staphylococcus aureus. Kind of data set: In vitro antimicrobial activity, microplate dilution MIC, Staphylococcus aureus. In kind it is cell-based. The protocol: as §1
In data set [4] the test system is Streptococcus faecalis. The data set is described as follows: In vitro antimicrobial activity, microplate dilution MIC, Streptococcus faecalis. Particulars: Enterococcus faecalis, Streptococcus faecalis, 10^5 microorganism/ml, read-out: MIC (minimal inhibitory concentration), SF. In kind it is cell-based. The protocol:
as §1

The subject of data set [5] is Streptococcus pneumoniae. Kind of data set: In vitro antimicrobial activity, microplate dilution MIC, Streptococcus pneumoniae. Format: cell-based. The settings on record: 10^5 microorganism/ml, 10% horse serum in BHI broth, read-out: MIC (minimal inhibitory concentration), SP. The protocol:
as §1

Data set [6] deals with Pseudomonas aeruginosa. Kind of data set: In vitro antimicrobial activity, microplate dilution MIC, Pseudomonas aeruginosa. Particulars: 10^5 microorganism/ml, read-out: MIC (minimal inhibitory concentration), PA. Format: cell-based. The protocol:
as §1

The test system of data set [7] is Bacteroides fragilis. Kind of data set: In vitro antimicrobial activity, microplate dilution MIC, Bacteroides fragilis. In kind it is cell-based. Particulars: 10^5 microorganism/ml, anaerobic, read-out: MIC (minimal inhibitory concentration), BF. The protocol:
as §1

Data set [8] relates to Staph. aureus. The data set is described as follows: In vivo antibacterial activity in female mice, Staph. aureus infection. Also on record: species or system Staphylococcus aureus. Particulars: Staphylococcus aureus, 168 h, mouse, one-half hour postinfection, deaths over seven days. The protocol: (§2) The in vivo antibacterial activity of the compounds of the invention was determined in female mice, 18-20 grams each. Aqueous solutions of the compounds to be tested were prepared by dissolving the free acid form in dilute sodium hydroxide and diluting the solution with distilled water to the desired concentration.
(§3) Cultures of E. coli were grown in brain heart infusion broth, and the mice were inoculated intraperitoneally with 0.5 ml of the bacterial test inoculum suspended in saline. Cultures of Staph. aureus were thawed from frozen pooled stocks and mixed with 5% mucin. A 0.5 ml preparation was used to infect mice by i.p. inoculation.
(§4) The mice were medicated subcutaneously (sc) or orally (po) with 0.5 ml of the test compound solution one-half hour postinfection. Deaths were recorded daily for seven days. Fifty percent protective dose values (PD50) were calculated using probit analyis.

Data set [9] has as its system E. coli. The data set is described as follows: In vivo antibacterial activity in female mice, E. coli infection. Also on record: species or system Escherichia coli. The settings on record: mouse; for ED50: Escherichia coli, 168 h, one-half hour postinfection, deaths over seven days. The protocol:
as §2, §3, §4

Data set [10] can be described thus: Serum levels in monkeys after oral dosing. In kind it is in vivo. Particulars: 25 mg/kg oral.
In data set [11] the test system is bacteria. Kind of data set: In vitro antimicrobial activity, overall comparison over the bacterial panel. Format: cell-based. Particulars: Table I MICs. The protocol:
as §1

The mark [12] stands for this setting: Staph. aureus, from Table I MICs.

In brackets after ≈: the same amount, converted by molar mass. Like-named read-outs stand apart in the source and are kept apart here.

For orientation: half-life means the time needed for the level to fall by half in the phase considered.

Turning to `Cc1cc(-c2c(F)cc3c(=O)c(C(=O)O)cn4c3c2OC[C@@H]4C)cc(C)n1` [B, (S)-10-(2,6-Dimethyl-4-pyridinyl)-9-fluoro-3-methyl-7-oxo-2,3-dihydro-7H-pyrido[1,2,3-de][1,4]benzoxazine-6-carboxylic acid], the MIC in [1] was 0.25 µg/mL (≈ 0.679 µM); in [2], 0.03 µg/mL (≈ 0.0814 µM); in data set [3] (Staphylococcus aureus, in vitro, 10^5 microorganism/ml, read-out: MIC (minimal inhibitory concentration), SA), 0.008 µg/mL (≈ 0.0217 µM); in data set [4], 0.06 µg/mL (≈ 0.163 µM); in data set [5], 0.03 µg/mL (≈ 0.0814 µM); in [6], 4 µg/mL (≈ 10.9 µM). Besides, the MIC in data set [7] amounted to 0.25 µg/mL (≈ 0.679 µM). Further, the “in vitro activity relative to compound P” value in [3] (setting [12]) is recorded as “thirty times as active as compound P”. Further, in data set [3] (setting [12]), the “in vitro activity relative to compound Q” value is on record as “four times as active as compound Q”. In addition, the ED50 came to 0.03 mg/kg in data set [8] (po, read-out: PD50 (fifty percent protective dose), Staph. aureus, po); 0.02 mg/kg in [8] (sc, read-out: PD50 (fifty percent protective dose), Staph. aureus, sc); 3 mg/kg in data set [9] (po, read-out: PD50 (fifty percent protective dose), E. coli, po); 1.4 mg/kg in data set [9] (sc, read-out: PD50 (fifty percent protective dose), E. coli, sc). The “in vivo activity against E. coli compared with compounds P and Q” value in data set [9] (Table II) is “approximately equal in activity to compound Q and slightly less active than compound P against E. coli”. Moreover, the serum levels entry in [10] is “high and prolonged serum levels”. In data set [10] (monkey, serum), this molecule gave a half-life of 16 h. Moreover, the Cmax in [10] (monkey, serum, read-out: maximum concentration (serum)) turned out to be 25000 ng/mL. Moreover, the Tmax in data set [10] (monkey, serum, read-out: time of maximum concentration (serum)) worked out at 3.5 h. For the same molecule, in [11], the “in vitro activity compared with prior art compounds P and Q” value is “substantilly more active than the prior art compounds (P and Q) against all of the organisms except E. coli and P. aeruginosa”.
